Assay results: patent US20100222349A1, “QUINOLINE DERIVATIVES USED TO TREAT INFLAMMATORY AND ALLERGIC DISEASES” (Glaxo Group Limited, priority 2007, published 2010)

Assays:
human H1 receptor [1] = target: T1, human H1 receptor (Homo sapiens, UniProt P35367); assay: Histamine H1 functional antagonist assay: determination of functional pKi values (FLIPR); assay type: cell-based; conditions: CHO cells expressing human H1 receptor, histamine at EC80, read-out: average pKi (pKb) at H1 (converted)
T1 construct: expressed in transfected cells
In short: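 Functional affinities come from concentration-effect curves of inhibited histamine (EC80) calcium responses read by FLIPR. Compound sat 30 min at 37° C on Fluo-4-loaded CHO cells stably expressing human H1 receptor, in probenecid-containing Tyrodes buffer, pH 7.40.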

human H1 receptor [2] = target: T1, human H1 receptor; assay: Histamine H1 functional antagonist assay: antagonist duration; assay type: cell-based; conditions: at one or more time points, after washout
Method: The human H1 receptor is cloned using known procedures described in the literature [Biochem. Biophys. Res. Commun., 201(2):894 (1994)]. Chinese hamster ovary (CHO) cells stably expressing the human H1 receptor are generated according to known procedures described in the literature [Br. J. Pharmacol., 117(6):1071 (1996)].
To determine the antagonist duration, cells are cultured overnight in non-coated black-walled clear bottom 96-well tissue culture plates, are washed with PBS and are incubated with a concentration of antagonist chosen to give an approximate DR in the range 30-300. Following the 30 min antagonist incubation period, the cells are washed two or three times with 200 μl of PBS and then 100 μl Tyrodes buffer is added to each well to initiate antagonist dissociation. Following incubation for predetermined times, typically 30-270 min at 37° C., the cells are then washed again with 200 μl PBS and are incubated with 100 μl Tyrodes buffer containing Brilliant Black, probenecid and Fluo-4 for 45 min at 37° C., as described above. After this period, the cells are challenged with histamine in the FLIPR™ as described above. The dose ratio at each time point is used to determine the fractional H1 receptor occupancy by the following equation: fractional receptor occupancy=(DR-1)/DR. The decrease in receptor occupancy over time approximates to a straight line and is analysed by linear regression. The slope of this straight line fit is used as an index of the dissociation rate of the antagonist. The dose ratios for antagonist treated cells and for antagonist treated and washed cells at each time point are used to calculate a relative dose ratio (rel DR) which is also used as an index of antagonist duration. Antagonists with long duration of action produce rel DR values close to 1, and antagonists with short duration of action produce rel DR values that approaches the dose ratio value obtained for antagonist treatment alone.

histamine H3 receptor = target: T2, histamine H3 receptor (Homo sapiens, UniProt Q9Y5N1); assay: Histamine H3 functional antagonist assay (GTPγS, membranes); assay type: biochemical; conditions: CHO K1 membranes, [35S]-GTPγS, histamine at EC80; read-out: average pKi (pKb) at H3 (converted)
T2 construct: expressed in transfected cells; host or cells: CHO K1 cells with pSwitch/pGeneH3 (GeneSwitch, mifepristone-induced), clone 3H3; membrane preparation
In short: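 Membranes came from CHO K1 cells with mifepristone-inducible (10 nM, 18 h) human H3 receptor expression, clone 3H3. Test compounds in DMSO were combined with WGA polystyrene LeadSeeker SPA beads, membranes and GDP.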

T1 sequence (P35367 whole entry): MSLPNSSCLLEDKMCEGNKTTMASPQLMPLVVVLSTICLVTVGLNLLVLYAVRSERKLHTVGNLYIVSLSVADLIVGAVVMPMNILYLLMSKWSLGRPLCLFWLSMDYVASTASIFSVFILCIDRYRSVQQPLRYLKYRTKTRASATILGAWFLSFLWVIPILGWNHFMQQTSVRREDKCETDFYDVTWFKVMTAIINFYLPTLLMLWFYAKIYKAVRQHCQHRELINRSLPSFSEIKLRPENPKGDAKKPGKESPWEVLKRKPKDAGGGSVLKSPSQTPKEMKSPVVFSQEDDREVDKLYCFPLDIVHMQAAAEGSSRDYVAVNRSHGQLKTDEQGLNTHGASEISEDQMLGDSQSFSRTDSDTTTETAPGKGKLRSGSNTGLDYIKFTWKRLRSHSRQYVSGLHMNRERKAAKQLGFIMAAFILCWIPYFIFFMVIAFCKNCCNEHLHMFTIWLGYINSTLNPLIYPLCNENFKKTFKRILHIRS
T2 sequence (Q9Y5N1 whole entry, species assumed): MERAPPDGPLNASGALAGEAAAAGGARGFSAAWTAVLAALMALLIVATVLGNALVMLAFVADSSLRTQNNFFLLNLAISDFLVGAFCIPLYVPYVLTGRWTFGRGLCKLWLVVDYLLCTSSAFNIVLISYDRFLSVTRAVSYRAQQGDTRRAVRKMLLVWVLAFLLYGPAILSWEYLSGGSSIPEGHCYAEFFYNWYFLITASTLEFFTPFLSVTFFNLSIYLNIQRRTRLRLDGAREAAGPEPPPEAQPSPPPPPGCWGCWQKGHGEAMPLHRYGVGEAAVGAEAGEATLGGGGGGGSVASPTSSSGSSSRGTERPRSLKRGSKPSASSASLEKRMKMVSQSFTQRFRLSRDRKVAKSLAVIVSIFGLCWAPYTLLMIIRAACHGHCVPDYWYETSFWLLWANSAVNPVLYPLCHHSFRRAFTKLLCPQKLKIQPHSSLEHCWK

Ki (human H1 receptor [1]): < 10 nM | Ki (histamine H3 receptor): > 316 nM
Compound: CCCCc1cc(OC2CCN(C[C@H]3CC[C@H](C(=O)N4CCCCC4)CC3)CC2)c2ncccc2c1 [Example 44, 6-Butyl-8-[(1-{[trans-4-(1-piperidinylcarbonyl)cyclohexyl]methyl}-4-piperidinyl)oxy]quinoline]
duration of action compared with azelastine (human H1 receptor [2]): longer duration of action than azelastine
